Source: patent US20010025105A1, “Certain substituted 1-aryl-3-piperazine-1'-yl propanones” (Molecular Geriatarics Corporation, priority 1997, published 2001)
Structures can show the parent of a compound that is named as a salt.

System: not given
Test: not given
Settings: not given
For Cl.Cl.O=C1c2ccccc2SCC1CN1CCN(Cc2ccccc2)CC1 (centres unmarked), the melting point was > 250 °C (dec.). For O=C(CCN1CCN(Cc2ccccc2)CC1)c1ccc(I)cc1 (as salt: hydrochloride) [Example 1, 1-(piodophenyl)-3-(4′-benzyl-1′-piperazinyl)-1-propanonedihydrochloride], the melting point was 224 °C (dec.). Compound O=C(CCN1CCN(Cc2ccccc2)CC1)c1cc(C(F)(F)F)cc(C(F)(F)F)c1 (as salt: hydrochloride) [Example 9, 1-[3″,5″-Bis-(trifluoromethyl)phenyl]-3-(4′-benzyl-1′-piperazinyl)-1-propanone dihydrochloride] has a melting point of 255 °C. O=C(CCN1CCN(Cc2ccccc2)CC1)c1cc2ccccc2o1 (as salt: hydrochloride) [Example 10, 1-(Benzofur-2″-yl)-3-(4′-benzyl-1′-piperazinyl)-1-propanone dihydrochloride] showed a melting point of 255 to 257 °C. For O=C(CCN1CCN(Cc2ccccc2)CC1)c1ccc2c(c1)OCCO2 (as salt: hydrochloride) [Example 19, 1-(2″,3″-Dihydro-1″,4″-benzodioxan-6″-yl)-3-(4′-benzyl-1′-piperazinyl)-1-propanone dihydrochloride], the melting point was 215 °C (dec.). For O=C(CCN1CCN(Cc2ccccc2)CC1)c1ccc2c(c1)CCCC2 (as salt: hydrochloride) [Example 20, 1-(1″,2″,3″,4″-Tetrahydronaphth-6″-yl)-3-(4′-benzyl-1′-piperazinyl)-1-propanone dihydrochloride], the melting point was 200 °C (dec.). In the case of O=C(CCN1CCN(Cc2ccccc2)CC1)c1ccc(-c2ccccc2)cc1 (as salt: hydrochloride) [Example 22, 1-p-Biphenyl-3-(4′-benzyl-1′-piperazinyl)-1-propanone dihydrochloride], the melting point is reported as 225 °C (dec.). In the case of Cn1cc(C(=O)CCN2CCN(Cc3ccccc3)CC2)cn1 (as salt: hydrochloride) [Example 24, 1-(1″-Methyl-1″-H-pyrazol-4″-yl)-3-(4′-benzyl-1′-piperazinyl)-1-propanone dihydrochloride], the melting point is reported as 221 °C (dec.).

System: TG3 immunoreactivity in OKA treated MSN1a cells
Test: MSN1a cell culture model, ELISA with TG3 antibody, okadaic acid treated cells
Type: cell-based, human
Settings: 1 μM OKA, 2 hrs at 37° C., read-out: IC50 for inhibition of TG3 immunoreactivity in OKA treated MSN1a cells
Protocol: This assay can thus be used to determine whether a drug is capable of preventing or intervening in AD by attenuating the production of abnormally phosphorylated paired helical filament epitopes associated with AD. To determine whether a drug is capable of preventing or intervening in AD activity, the MSN1a cells containing tau and associated proteins are treated with OKA capable of greatly increasing immunoreactivity of the MSN1a cells with AD specific monoclonal antibodies. Then, either prior to or concomitantly with OKA treatment, a compound of the present invention is added to the culture. If the compound prevents the induction of the AD epitopes in the MSN1a cells treated with OKA, then it is said to have anti-AD activity. If the AD-specific antibodies are highly reactive with the neuroblastoma cells following OKA treatment in the presence of compound, then the compound is said to be ineffectual against AD.
The MSN1a human neuroblastoma line was subcloned from a population of MSN cells obtained from the laboratory of Dr. Peter Davies (Albert Einstein College of Medicine, New York, N.Y.). Cells were grown and maintained in flasks in RPMI 1640 medium, supplemented with 15% fetal calf serum, 100 U/ml penicillin, 100 U/ml Streptomycin, 0.5 ug/ml fungizone under 7.5% CO2 at 37° C.
Stock solutions of drugs were prepared by dissolving the anhydrous powders to final concentrations of either 10 or 20 mM in 50% aqueous or 100% dimethyl sulfoxide (DMSO), respectively. Working solutions of drugs were prepared by dilution of the stock solutions with Kreb's Ringer in Hepes buffer (KRH) (128 mM NaCl, 5 mM KCl, 2.5 mM CaCl2 1.2 mM MgSO4, 1 mM Na2HPO4, 10 mM dextrose, 20 mM Hepes, pH 7.4). OKA is maintained as a 1 mM stock solution in DMSO prior to dilution to 4 μM in KRH.
MSN cells grown in 225 cm^2 flasks are removed from the incubator, their medium decanted and replaced with 50 ml pre-warmed KRH. The cells are harvested by scraping prior to sedimentation at 1000 rpm for 5 min. The supernatants are discarded and the cell pellets are resuspended, the cells counted and diluted to a density of 2×10^4 cells/[…]. The cells are then plated in a 96 well plate at 50 μl/well and 25 μl of 4 μM OKA and 25 μl of drug are then added to the appropriate wells; the entire 96 well plate is then incubated for 2 hrs at 37° C. Depending on the dilution of drug added, this yields individual wells containing 1 μM OKA, 0-64 μM drug and 2×10^4 cells in 0.26% DMSO in KRH. The incubation is terminated by the addition of 20 μl of 6X extraction buffer and immediate freezing at −80° C. for at least one hr. The 6X extraction buffer contains: 25 mM Tris-HCl, pH 7.6, 150 mM NaCl, 5 mM EDTA, 24 mM β-glycerol phosphate, 10 μg/ml APMSF (4-amidinophenylmethane-sulfonyl flouride), and 2.5 μg/ml each of leupeptin, aprotinin, and pepstatin. The plates are thawed in a 37° C. water bath and 20 μl of cell lysate is added to a replica well in an ELISA plate that already contains 80 μl of coating buffer (15 mM Na2CO3 and 35 mM NaHCO3, pH 9.6). The plates are allowed to coat overnight at 4° C. The plates are washed four times with deionized water and then blocked for 30 min at 37° C. with 200 μl/well pre-warmed 1% bovine serum albumin in 10 mM Tris-HCl, pH 7.4, 150 mM NaCl, 3 mM NaN3 (BSA-TBS). After the blocking solution is removed, 100 μl/well of an appropriate dilution of pre-warmed primary antibody (eg., TG3 or PHF-1) in BSA-TBS is added and incubated at 37° C. for 30 min. Incubation is terninated by washing four times in deionized water at which time 100 μl of an appropriate dilution of pre-warmed secondary antibody (conjugated to alkaline phosphatase) in BSA-TBS is added to each well in the ELISA plate. Incubation is performed for 30 min at 37° C. followed by washing 4 times with deionized water. […] of prewarmed chromogenic substrate (1 mg/mnl p-nitrophenyl phosphate in 10% diethanolamine, 3 mM NaN3, 0.5 mM MgCl2, pH 9.8) is added and the plate incubated for 30 min at 37° C. […]
Compound “1-(1-Nitrophenyl)-3-[4′-(2″,3″-difluorobenzoyl)-1′-piperazinyl]-1-propanone dihydrochloride [Example 63]” has an IC50 of 7.3 µM. For “1-(-Methylthiophenyl)-3-(4′-benzyl-1′-piperazinyl)-1-propanonedihydrochloride [Example 14]”, the IC50 was 5.8 µM. Compound Cl.Cl.O=C(CCN1CCN(Cc2ccccc2)CC1)c1ccc([N+](=O)[O-])cc1 [Example 5, 1-p-Nitrophenyl)-3-(4′-benzyl-1′-piperaziny)-1-propanone dihydrochloride] has an IC50 of 5 µM. O=C(CCN1CCN(Cc2ccccc2)CC1)c1cccc([N+](=O)[O-])c1 [Example 11, 1-(m-Nitrophenyl)-3-(4′-benzyl-1′-piperazinyl)-1-propanone dihydrochloride] gave an IC50 of 4.2 µM. O=C(CCN1CCN(Cc2ccccc2)CC1)c1ccccc1F [Example 13, 1-(o-Fluorophenyl)-3-(4′-benzyl-1′-piperazinyl)-1-propanone dihydrochloride] gave an IC50 of 11 µM. O=C(CCN1CCN(Cc2ccccc2)CC1)c1ccc(Br)cc1 [Example 16, 1-(p-Bromophenyl)-3-(4′-benzyl-1′-piperazinyl)-1-propanone dihydrochloride] gave an IC50 of 5.2 µM. Work on O=C(CCN1CCN(Cc2ccccc2F)CC1)c1ccc(I)cc1 [Example 29, 1-(p-Iodophenyl)-3-[4′-(o-fluorobenzyl)-1′-piperazinyl]-1-propanone dihydrochloride] yielded an IC50 of 8.7 µM. Work on O=C(CCN1CCN(Cc2ccccc2F)CC1)c1ccc([N+](=O)[O-])cc1 [Example 32, 1-(p-Nitrophenyl)-3-[4′-(o-fluorobenzyl)-1′-piperazinyl]-1-propanone dihydrochloride] yielded an IC50 of 6.2 µM. For CS(=O)(=O)Nc1ccc(C(=O)CCN2CCN(Cc3cc(F)ccc3F)CC2)cc1 [Example 36, 1-p-Methanesulfonamidophenyl)-3-(2″,5″-difluorobenzyl-1′-piperazinyl)-1-propanone dihydrochloride], the IC50 was 25 µM. O=C(CCN1CCN(C(=O)c2ccccc2C(F)(F)F)CC1)c1ccc([N+](=O)[O-])cc1 [Example 39] showed an IC50 of 10 µM. With O=C(CCN1CCN(Cc2cccc(F)c2)CC1)c1ccc([N+](=O)[O-])cc1 [Example 42, 1-(p-Nitrophenyl)-3-[4′-(m-fluorobenzyl)-1′-piperazinyl]-1-propanonedihydrochloride] the IC50 was 5.7 µM. In the case of O=C(CCN1CCN(Cc2ccc(F)cc2)CC1)c1ccccc1F [Example 44, 1-(o-Fluorophenyl)-3-[4′-(p-fluorobenzyl)-1′-piperazinyl]-1-propanone dihydrochloride], the IC50 is reported as 7.5 µM. O=C(CCN1CCN(Cc2ccc(F)c(F)c2)CC1)c1ccc([N+](=O)[O-])cc1 [Example 55, 1-(p-Nitrophenyl)-3-[4′-(3″,4″-difluorobenzyl)-1′-piperazinyl]-1-propanone dihydrochloride] showed an IC50 of 6.3 µM. Work on O=C(CCN1CCN(Cc2ccccc2)CC1)c1ccc(Br)s1 [Example 57, 1-(5″-Bromo-2″-thieny)-3-(4′-benzy-1′-piperazinyl)-1-propanone dihydrochloride] yielded an IC50 of 6.8 µM. With O=C(CCN1CCN(Cc2ccccc2)CC1)c1ccccc1I [Example 81, 1-o-Iodophenyl-3-(4′-benzyl-1′-piperazinyl)-1-propanone dihydrochloride] the IC50 was 4.5 µM.

Same assay, conditions: Homo sapiens, 1 μM OKA, 2 hrs at 37° C., read-out: IC50 for inhibition of TG3 immunoreactivity in OKA treated MSN1a cells
O=C(CCN1CCN(Cc2ccccc2)CC1)c1ccc2c(c1)OCCO2 [Example 19, 1-(2″,3″-Dihydro-1″,4″-benzodioxan-6″-yl)-3-(4′-benzyl-1′-piperazinyl)-1-propanone dihydrochloride] showed an IC50 of 15.6 µM. Compound CS(=O)(=O)Nc1ccc(C(=O)CCN2CCN(Cc3ccccc3)CC2)cc1 [Example 26, 1-[-p-(Methanesulfonamido)phenyl]-3-(4′-benzyl-1′-piperazinyl)-1-propanone dihydrochloride] has an IC50 of 14.7 µM. For Cc1ccc(C(=O)CCN2CCN(Cc3ccccc3)CC2)o1 [Example 67, 1-(5″-Methyl-2″-furanyl)-3-(4′-benzyl-1′-piperazinyl)-1-propanone hydrochloride], the IC50 was 20 µM. O=C(CCN1CCN(Cc2ccccc2)CC1)c1ccc(Sc2ccccc2)cc1 [Example 69, 1-p-Phenylthiophenyl-3-(4′-benzyl-1′-piperazinyl)-3-propanone dihydrochlonde] showed an IC50 of 15 µM. With O=C(CCN1CCN(Cc2ccccc2)CC1)c1cccn1S(=O)(=O)c1ccccc1 [Example 91, 1-(N-Phenylsulfonylpyrrol-2-yl)-3-(4′-benzyl-1′-piperazinyl)-1-propanone dihydrochloride] the IC50 was 9.5 µM. Work on O=C(CCN1CCC(C(=O)c2ccc(F)cc2)CC1)c1csc([N+](=O)[O-])c1 [Example 98, 1-(2″-Nitro-4″-thienyl)-3-(4′-p-fluorobenzoyl-1′-piperidinyl)-1-propanone hydrochloride] yielded an IC50 of 34 µM.
